# Laboratory results reported in patent publication US9271946B2, “Use of a RAR antagonist or inverse agonist for the treatment of chemotherapy and/or radiation therapy side effects” (IO Therapeutics, Inc., priority 2006, dated 2016).
# Test system: CPM-induced leukopenic mice
# Assay: peripheral and systemic neutrophil recovery in CPM-induced leukopenic mice, spleen and bone marrow (Example 2)
# Type: in vivo, mouse
# Description: Leukopenia was induced in male BDF1 mice (C57Bl×DBA2, 7.5-12 weeks) by an intra-peritoneal (i.p.) injection of 200 mg/kg Cyclophosphamide (CPM, Sigma-Aldrich, Saint Louis, Mo.) in 0.2 ml saline. The effect of VTP 194310 on leukocyte recovery was evaluated by oral gavage of animals with 1 mg/kg of VTP 194310 as indicated in the results section. VTP 194310 (dissolved in DMSO) was diluted through peanut oil as the vehicle (dosed at 5 ml/kg). Control mice were given DMSO and vehicle alone. As a positive control, granulocytopoiesis was stimulated in CPM-treated mice by a single sub-cutaneous injection of 10 μg/kg pegylated recombinant methionyl human granulocyte colony-stimulating factor (PEG-r-metHuG-CSF) (Neulasta, Pegfilgrastim; Amgen, Thousand Oaks, Calif.) on day 2. Three separate experiments were performed.
# Peripheral blood (60 μl) was collected under anaesthesia from the retroorbital sinus of the mice with heparinized capillary tubes and transferred to EDTA-coated microtainer tubes (Becton Dickinson, Franklin Lakes, N.J.). White cell, neutrophil, and lymphocyte counts were obtained for at least three mice per group by diluting the blood 1:4 with PBS containing 5% bovine serum albumin (Fraction V; Sigma, Saint Louis, Mo.), and by using an Advia 120 Hematology System (Bayer HealthCare Diagnostics Division, Tarrytown, N.Y.).
# Immature (Gr-1^low/CD11b^+ve) and mature (Gr-1^+ve/CD11b^+ve) neutrophils were identified in single cells suspensions prepared from spleen and bone marrow (femur) aspirates by double immunostaining using PE- and FITC-conjugated monoclonal antibodies (Pharmingen, San Diego, Calif.). Cells were analysed on a FACS Calibur interfaced with CellQuest Pro software program (Becton Dickinson, San Jose, Calif.).
# These mice were gavaged with VTP 194310 on days −1 to 2 in relation to CPM treatment.
smiles,measurement,setting,value
"CCc1ccc(C2=CC(C)(C)Sc3ccc(C#Cc4ccc(C(=O)O)cc4)cc32)cc1 [VTP 194310, 4-[[4-(4-ethylphenyl)-2,2-dimethyl-(2H)-thiochromen-6-yl]-ethynyl]-benzoic acid]",absolute number of immature granulocytes (Gr-1low/CD11b+ve) in the spleen,day 7,0.93±0.02 ×10^7
same,absolute number of Gr-1+ve/CD11b+ve cells in the spleen,days 6 and 7,significantly increased
same,immature granulocytes (Gr-1low/CD11b+ve) in the spleen,days 6 and 7,elevated
same,"neutrophil, and lymphocyte counts compared to control recovering mice","days 6 to 8, gavaged days −1 to 2",significantly elevated
same,spleen weight compared to controls,"days 7 and 8, gavaged days −1 to 2",increased
same,Gr-1+ve/CD11b+ve cells in the bone marrow,gavaged days −1 to 2,increased prevalence
